Assay results taken from the NIST ThermoML archive (doi:10.1021/je700321s).

Assay: xn = mol fraction of the nth substance listed
Settings: Liquid, Vibrating tube method

CC(C)O [propan-2-ol] + O=C=O
Settings | mass density [kg/m3]
308.11 K, 1814 kPa, x2 = 0.139 | 786.2
308.11 K, 2252 kPa, x2 = 0.139 | 786.8
308.11 K, 3003 kPa, x2 = 0.139 | 787.7
308.11 K, 3206 kPa, x2 = 0.139 | 787.9
308.11 K, 3427 kPa, x2 = 0.139 | 788.2
308.11 K, 3514 kPa, x2 = 0.2003 | 792.7
308.11 K, 3607 kPa, x2 = 0.139 | 788.4
308.11 K, 4006 kPa, x2 = 0.2003 | 793.4
308.11 K, 4089 kPa, x2 = 0.139 | 788.9
308.11 K, 4510 kPa, x2 = 0.2003 | 794
308.11 K, 5013 kPa, x2 = 0.139 | 789.9
308.11 K, 5028 kPa, x2 = 0.2003 | 794.7
308.11 K, 5503 kPa, x2 = 0.139 | 790.5
308.11 K, 5504 kPa, x2 = 0.2003 | 795.3
308.11 K, 6002 kPa, x2 = 0.6086 | 812.2
308.11 K, 6006 kPa, x2 = 0.2003 | 795.9
308.11 K, 6019 kPa, x2 = 0.139 | 791
308.11 K, 6221 kPa, x2 = 0.6086 | 813
308.11 K, 6400 kPa, x2 = 0.6086 | 813.7
308.11 K, 6517 kPa, x2 = 0.2003 | 796.5
308.11 K, 6518 kPa, x2 = 0.139 | 791.7
308.11 K, 6606 kPa, x2 = 0.6086 | 814.5
308.11 K, 6807 kPa, x2 = 0.6086 | 815.2
308.11 K, 6824 kPa, x2 = 0.7943 | 793.7
308.11 K, 7001 kPa, x2 = 0.7943 | 795.6
308.11 K, 7009 kPa, x2 = 0.139 | 792.2
308.11 K, 7019 kPa, x2 = 0.6086 | 815.9
308.11 K, 7029 kPa, x2 = 0.2003 | 797.2
308.11 K, 7203 kPa, x2 = 0.6086 | 816.7
308.11 K, 7206 kPa, x2 = 0.7943 | 797.4
308.11 K, 7400 kPa, x2 = 0.7943 | 799.2
308.11 K, 7401 kPa, x2 = 0.6086 | 817.4
308.11 K, 7512 kPa, x2 = 0.139 | 792.7
308.11 K, 7516 kPa, x2 = 0.2003 | 797.7
308.11 K, 7607 kPa, x2 = 0.6086 | 818.3
308.11 K, 7607 kPa, x2 = 0.7943 | 801.1
308.11 K, 7804 kPa, x2 = 0.6086 | 818.9
308.11 K, 7810 kPa, x2 = 0.7943 | 803
308.11 K, 8001 kPa, x2 = 0.2003 | 798.3
308.11 K, 8005 kPa, x2 = 0.6086 | 819.7
308.11 K, 8007 kPa, x2 = 0.7943 | 804.6
308.11 K, 8016 kPa, x2 = 0.139 | 793.3
308.11 K, 8197 kPa, x2 = 0.7943 | 806.2
308.11 K, 8209 kPa, x2 = 0.6086 | 820.4
308.11 K, 8414 kPa, x2 = 0.7943 | 807.8
308.11 K, 8511 kPa, x2 = 0.2003 | 798.9
308.11 K, 8530 kPa, x2 = 0.139 | 793.9
308.11 K, 8600 kPa, x2 = 0.6086 | 821.7
308.11 K, 8618 kPa, x2 = 0.7943 | 809.6
308.11 K, 8796 kPa, x2 = 0.7943 | 810.8
308.11 K, 8810 kPa, x2 = 0.6086 | 822.4
308.11 K, 8990 kPa, x2 = 0.139 | 794.3
308.11 K, 9000 kPa, x2 = 0.6086 | 823.1
308.11 K, 9017 kPa, x2 = 0.7943 | 812.5
308.11 K, 9019 kPa, x2 = 0.2003 | 799.5
308.11 K, 9101 kPa, x2 = 0.6086 | 823.3
308.11 K, 9200 kPa, x2 = 0.6086 | 823.8
308.11 K, 9203 kPa, x2 = 0.7943 | 813.9
308.11 K, 9400 kPa, x2 = 0.7943 | 815.3
308.11 K, 9498 kPa, x2 = 0.139 | 794.8
308.11 K, 9607 kPa, x2 = 0.7943 | 816.6
308.11 K, 9807 kPa, x2 = 0.7943 | 818
308.11 K, 9902 kPa, x2 = 0.7943 | 818.6
308.11 K, 10003 kPa, x2 = 0.2003 | 800.7
308.11 K, 10047 kPa, x2 = 0.2003 | 800.8
308.12 K, 4780 kPa, x2 = 0.4248 | 807.5
308.12 K, 5038 kPa, x2 = 0.4248 | 808.2
308.12 K, 5326 kPa, x2 = 0.4248 | 808.8
308.12 K, 5517 kPa, x2 = 0.4248 | 809.2
308.12 K, 6029 kPa, x2 = 0.4248 | 810.3
308.12 K, 6505 kPa, x2 = 0.4248 | 811.3
308.12 K, 6515 kPa, x2 = 0.4248 | 811.4
308.12 K, 6714 kPa, x2 = 0.4248 | 811.8
308.12 K, 7035 kPa, x2 = 0.4248 | 812.4
308.12 K, 7207 kPa, x2 = 0.4248 | 812.8
308.12 K, 7302 kPa, x2 = 0.9492 | 699.6
308.12 K, 7402 kPa, x2 = 0.9492 | 704.9
308.12 K, 7501 kPa, x2 = 0.4248 | 813.4
308.12 K, 7605 kPa, x2 = 0.9492 | 713.8
308.12 K, 7700 kPa, x2 = 0.4248 | 813.8
308.12 K, 7802 kPa, x2 = 0.9492 | 720.9
308.12 K, 8002 kPa, x2 = 0.9492 | 728
308.12 K, 8024 kPa, x2 = 0.4248 | 814.4
308.12 K, 8204 kPa, x2 = 0.9492 | 734.5
308.12 K, 8404 kPa, x2 = 0.9492 | 740.3
308.12 K, 8605 kPa, x2 = 0.9492 | 745.7
308.12 K, 8606 kPa, x2 = 0.4248 | 815.6
308.12 K, 8802 kPa, x2 = 0.4248 | 816
308.12 K, 8802 kPa, x2 = 0.9492 | 750.6
308.12 K, 9002 kPa, x2 = 0.4248 | 816.4
308.12 K, 9004 kPa, x2 = 0.9492 | 755.4
308.12 K, 9201 kPa, x2 = 0.9492 | 759.7
308.12 K, 9408 kPa, x2 = 0.9492 | 764
308.12 K, 9529 kPa, x2 = 0.4248 | 817.3
308.12 K, 9610 kPa, x2 = 0.9492 | 768
308.12 K, 9805 kPa, x2 = 0.9492 | 771.5
308.12 K, 9898 kPa, x2 = 0.4248 | 818
308.12 K, 10003 kPa, x2 = 0.9492 | 774.9
308.12 K, 10202 kPa, x2 = 0.9492 | 778
308.12 K, 10405 kPa, x2 = 0.9492 | 780.9
308.12 K, 10617 kPa, x2 = 0.9492 | 783.7
308.12 K, 10807 kPa, x2 = 0.9492 | 785.9
308.13 K, 7456 kPa, x2 = 0.9715 | 611.7
308.13 K, 7502 kPa, x2 = 0.9715 | 636.2
308.13 K, 7992 kPa, x2 = 0.9715 | 680.6
308.13 K, 8522 kPa, x2 = 0.9715 | 706.8
308.13 K, 8997 kPa, x2 = 0.9715 | 724.3
308.13 K, 9508 kPa, x2 = 0.9715 | 739.8
308.13 K, 10027 kPa, x2 = 0.9715 | 752.9
308.13 K, 10521 kPa, x2 = 0.9715 | 763.7
308.13 K, 11017 kPa, x2 = 0.9715 | 773.2
308.13 K, 11500 kPa, x2 = 0.9715 | 781.6
308.13 K, 12008 kPa, x2 = 0.9715 | 789.6
308.13 K, 12520 kPa, x2 = 0.9715 | 797.2
308.13 K, 13012 kPa, x2 = 0.9715 | 803.8
308.13 K, 13520 kPa, x2 = 0.9715 | 810.4
308.13 K, 14014 kPa, x2 = 0.9715 | 816.4
308.13 K, 14520 kPa, x2 = 0.9715 | 822.1
308.13 K, 15000 kPa, x2 = 0.9715 | 827.3
313.08 K, 7544 kPa, x2 = 0.7943 | 777.4
313.08 K, 7601 kPa, x2 = 0.7943 | 778.5
313.08 K, 7810 kPa, x2 = 0.7943 | 780.8
313.08 K, 8013 kPa, x2 = 0.7943 | 783
313.08 K, 8205 kPa, x2 = 0.7943 | 784.9
313.08 K, 8410 kPa, x2 = 0.7943 | 786.8
313.08 K, 8593 kPa, x2 = 0.7943 | 788.4
313.08 K, 8800 kPa, x2 = 0.7943 | 790.3
313.08 K, 8999 kPa, x2 = 0.7943 | 792.2
313.08 K, 9208 kPa, x2 = 0.7943 | 794
313.08 K, 9405 kPa, x2 = 0.7943 | 795.7
313.08 K, 9619 kPa, x2 = 0.7943 | 797.5
313.08 K, 9803 kPa, x2 = 0.7943 | 799
